For 69 molecules, LC retention time results are on record in the RepoRT retention time repository.

SMILES strings stand for the structures.

This series can be described thus: Waters ACQUITY UPLC BEH C18, 100 × 2.1 mm, 1.7 µm, 40 °C, 0.3 to 0.4 mL/min, estimated dead time 0.63 min; A: water + 0.1% formic acid; B: methanol + 0.1% formic acid; gradient (min/%B) 0/0.5 0.1/0.5 10/80 10.1/99.5 12/99.5. The note with it: stereoisomer not certain.

In the case of `COc1cc(C=CC(=O)OC2OC(CO)C(O)C(O)C2O)cc(OC)c1O` (centres undefined), the LC retention time was 3.54 min. Consider `C=CC12CN(C)C3CC14C(=Nc1ccccc14)C1CC2C3CO1` (centres undefined), for which the LC retention time was 3.58 min. Next, `CC(C)CC(N)C(=O)NC(Cc1ccccc1)C(=O)O` (centres undefined): 3.64 min; `CC(C)=CCc1c(O)ccc2c1OCC(c1ccc(O)cc1O)C2=O` (centres undefined): 7.51 min. Next, `O=C1CC(c2ccccc2)Oc2cc(O)cc(O)c21` (centres undefined): 7.47 min. Next, `CCCCCC=CC=CC(CCCCCCCC(=O)O)OO` (centres undefined): 8 min; `CC1OC(OC2CC(C)(C)CC3C4=CCC5C6(C)CCC(OC7OC(C(=O)O)C(O)C(O)C7OC7OC(CO)C(O)C(O)C7OC7OCC(O)C(O)C7O)C(C)(CO)C6CCC5(C)C4(C)CCC23C)C(O)C(O)C1O` (centres undefined): 5.56 min.

On to `OCC1OC(OC2C(Oc3cc4c(O)cc(O)cc4[o+]c3-c3ccc(O)c(O)c3)OC(CO)C(O)C2O)C(O)C(O)C1O` (centres undefined), for which the LC retention time was 2.77 min. Next, `COc1ccc2c(c1)OC(OC1OC(CO)C(O)C(O)C1O)C(=O)N2O` (centres undefined): 3.5 min; `CC1(C(=O)O)CCC2(C)CCC3(C)C(=CC(=O)C4C5(C)CCC(OC6OC(C(=O)O)C(O)C(O)C6OC6OC(C(=O)O)C(O)C(O)C6O)C(C)(CO)C5CCC43C)C2C1` (centres undefined): 6.36 min; `CCN1CC2(OC(=O)c3ccccc3N)CCC(OC)C34C1C(CC23)C1(O)CC(OC)C2CC4C1(O)C2OC` (centres undefined): 4.95 min. Next, `COc1ccc(CCC(=O)c2c(O)cc(OC3OC(CO)C(O)C(O)C3OC3OC(C)C(O)C(O)C3O)cc2O)cc1O` (centres undefined): 5.07 min; `NC(CCC(=O)NC(CS)C(=O)NCC(=O)O)C(=O)O` (centres undefined): 1.52 min; `CC(C)=CCCC(C)(OC1OC(COC2OCC(O)C(O)C2O)C(O)C(O)C1O)C1CCC2(C)C1C(O)CC1C3(C)CCC(O)C(C)(C)C3C(O)CC12C` (centres undefined): 6.11 min. Next, `COc1ccc(-c2coc3cc(OC4OC(CO)C(O)C(O)C4O)cc(O)c3c2=O)cc1` (centres undefined): 5.73 min; `COc1c(-c2ccccc2)oc2c(OC)c(O)cc(O)c2c1=O`: 5.71 min; `COc1ccc(C=Cc2cc(OC)cc(OC)c2)cc1`: 9.6 min. Take `OCC=Cc1ccc(O)c(O)c1`: the LC retention time is 3.18 min. Next, `O=c1cc2oc(-c3ccc([O-])c(O)c3)c(OC3OC(CO)C(O)C(O)C3OC3OCC(O)C(O)C3O)cc-2c(O)c1` (centres undefined): 2.88 min; `O=c1cc(-c2ccc(O)cc2)oc2c(C3OC(CO)C(O)C3O)c(O)c(C3OC(CO)C(O)C(O)C3O)c(O)c12` (centres undefined): 3.55 min. Next, `COc1ccc(-c2coc3cc(OC4OC(COC(=O)CC(=O)O)C(O)C(O)C4O)ccc3c2=O)cc1` (centres undefined): 5.43 min; `CC1CCC2C(C)C3C(CC4C5CC=C6CC(OC7OC(CO)C(O)C(O)C7OC7OC(C)C(O)C(O)C7O)CCC6(C)C5CCC43C)N2C1` (centres undefined): 4.94 min. Next, `O=C(O)CC(=O)OCC1OC(Oc2c(-c3cc(O)c(O)cc3O)oc3cc(O)cc(O)c3c2=O)C(O)C(O)C1O` (centres undefined): 3.88 min. Consider `CCCCCCC(O)CC=CCCCCCCCC(=O)O` (centres undefined), for which the LC retention time is 10.1 min. Next, `CC1OC(OC2C(OC3C(OC4CCC5(C)C(CCC6(C)C5CC=C5C7CC(C)(C)CC(O)C7(C)CCC56C)C4(C)CO)OC(C(=O)O)C(O)C3O)OC(CO)C(O)C2O)C(O)C(O)C1O` (centres undefined): 7.09 min; `COc1cc2c3cc1Oc1c(OC)c(OC)cc4c1C(Cc1ccc(cc1)Oc1cc(ccc1O)CC3N(C)CC2)N(C)CC4` (centres undefined): 3.76 min. Next, `O=c1c(OC2OC(CO)C(O)C(O)C2O)c(-c2cc(O)c(O)c(OC3OC(CO)C(O)C(O)C3O)c2)oc2cc(O)cc(O)c12` (centres undefined): 3.34 min; `CC(=O)OCC1OC(OC2C(O)COC(OC3C(O)C(C)(C)CC4C5=CCC6C7(C)CCC(OC8OC(C(=O)O)C(O)C(O)C8OC8OC(CO)C(O)C(O)C8OC8OC(CO)C(O)C(O)C8O)C(C)(CO)C7CCC6(C)C5(C)CCC43C)C2O)C(OC(C)=O)C(OC(C)=O)C1OC(C)=O` (centres undefined): 6.26 min. Next, `O=c1c(OC2OC(CO)C(O)C(O)C2OC2OC(CO)C(O)C(O)C2O)c(-c2ccc(O)cc2)oc2cc(O)cc(O)c12` (centres undefined): 3.8 min; `Oc1cc(O)c2ccc(-c3ccc(O)c(O)c3)[o+]c2c1`: 3.59 min. Consider `COc1cc(C=CC(=O)OCC2OC(OC3C(c4c(O)cc5oc(-c6ccc(O)c(O)c6)cc(=O)c5c4O)OC(CO)C(O)C3O)C(O)C(O)C2O)ccc1O` (centres undefined), for which the LC retention time was 3.87 min. As for `CCC12CCCN3CCc4c(n(c5ccccc45)C(O)(C(=O)OC)C1)C32` (centres undefined), the LC retention time was 4.5 min.

For the molecule `CC1OC(OCC2OC(Oc3c(-c4ccc(O)cc4)oc4cc(OC5OC(C)C(O)C(O)C5O)cc(O)c4c3=O)C(O)C(O)C2O)C(O)C(O)C1O` (centres undefined), the LC retention time was 3.4 min. Regarding `O=c1c(O)c(-c2ccc(O)c(O)c2)oc2c(OC3OC(CO)C(O)C(O)C3O)c(O)cc(O)c12` (centres undefined), the LC retention time was 4.64 min. Next, `C=CC1c2cc3n(c(=O)c2C2OC1OC1OC(CO)C(O)C(O)C1O2)CCc1c-3[nH]c2ccccc12` (centres undefined): 5.46 min. Next, `CC(CCC1C(CO)=CC(=O)CC1(C)C)OC1OC(CO)C(O)C(O)C1O` (centres undefined): 3.81 min; `COc1cc(C(O)C(CO)Oc2c(OC)cc(-c3cc(=O)c4c(O)cc(OC5OC(COC(=O)CC(=O)O)C(O)C(O)C5O)cc4o3)cc2OC)ccc1O` (centres undefined): 5.17 min. Next, `CN1C2CCC1CC(OC(=O)C(CO)c1ccccc1)C2` (centres undefined): 3.59 min. For the molecule `CN1CCc2cc3c(c4c2C1Cc1ccccc1-4)OCO3` (centres undefined), the LC retention time is 4.89 min. Next, `COc1c(OC2OC(CO)C(O)C(O)C2O)cc2oc(-c3ccc(O)c(O)c3)c(O)c(=O)c2c1O` (centres undefined): 4.58 min. Next, `O=c1cc(-c2ccc(O)cc2)oc2cc(OC3OC(CO)C(O)C(O)C3O)cc(O)c12` (centres undefined): 4.18 min; `CCCCC(=O)OC1C(CO)OC(OC2(CO)OC(CO)C(OC(C)=O)C2O)C(OC(=O)CCCC)C1OC(=O)CCCC` (centres undefined): 8.56 min. Next, `Cc1ncc(COC2OC(CO)C(O)C(O)C2O)c(CO)c1O` (centres undefined): 1.7 min; `CC1CCC2(C(=O)O)CCC3(C)C(=CCC4C5(C)CC(O)C(O)C(C)(C)C5CCC43C)C2C1C` (centres undefined): 9.89 min; `O=c1cc[nH]c2ccccc12`: 2.93 min. For `COc1cccc(C=CC(=O)O)c1`, the LC retention time is 6.03 min. Turning to `COc1cc(C=CC(=O)O)cc(OC)c1O`, the LC retention time is 4.21 min. Regarding `CC1(C)CC(=O)C2(C)CCC3(C)C(=CCC4C5(C)CCC(OC6OC(C(=O)O)C(O)C(O)C6OC6OC(CO)C(O)C(O)C6O)C(C)(CO)C5CCC43C)C2C1` (centres undefined), the LC retention time was 7.84 min. Next, `CC1OC(OC2C(OC3C(OC4CCC5(C)C(CCC6(C)C5CC=C5C7CC(C)(C)CC(OC8OC(C)C(O)C(O)C8O)C7(C)CCC56C)C4(C)CO)OC(C(=O)O)C(O)C3O)OCC(O)C2O)C(O)C(O)C1O` (centres undefined): 5.86 min. As for `CCC(C)C(NC(=O)C(N)C(C)C)C(=O)O` (centres undefined), the LC retention time was 2.88 min. Next, `C=CC(O)CC(=NOS(=O)(=O)O)SC1OC(CO)C(O)C(O)C1O` (centres undefined): 1.77 min. Next, `O=C(O)c1cc2c(c3c1c([N+](=O)[O-])cc1ccc(O)cc13)OCO2`: 5.96 min; `COc1cc2ccc(=O)oc2cc1OC`: 5 min; `COc1ccc(C(=O)OC2CC3CCC(C2)N3C)cc1OC` (centres undefined): 3.95 min. Next, `CC(C)C(=O)OC(CC(=O)[O-])C[N+](C)(C)C` (centres undefined): 2.48 min; `CCc1nccc2c1[nH]c1ccccc12`: 4.01 min; `CC(=O)Oc1ccc(C=Cc2cc(OC(C)=O)cc(OC(C)=O)c2)cc1`: 8.46 min. `CC1CCC2(OC1O)OC1CC3C4CC=C5CC(OC6OC(CO)C(OC7OC(C)C(O)C(O)C7O)C(O)C6OC6OC(C)C(O)C(O)C6O)CCC5(C)C4CC(O)C3(C)C1C2C` (centres undefined): the LC retention time was 5.61 min.

In the case of `COc1ccc(C=CC(=O)c2c(O)cc(OC3OC(CO)C(O)C(O)C3OC3OC(C)C(O)C(O)C3O)cc2O)cc1` (centres undefined), the LC retention time is 5.42 min. Next, `CCCCCCCCCCCCC(O)C(O)C(COC1OC(CC(C(=O)O)C(=O)O)C(O)C(O)C1O)NC(C)=O` (centres undefined): 4.79 min. Next, `COc1c(CC=C(C)C)c(O)cc2oc(-c3ccc(O)cc3O)cc12`: 8.35 min; `C=CC1C2=CCOC(=O)C2=COC1OC1OC(CO)C(O)C(O)C1O` (centres undefined): 3.44 min.

Regarding `O=c1cc(-c2ccc(O)cc2)oc2cc(OC3OC(CO)C(O)C(O)C3O)c(C3OC(CO)C(O)C(O)C3O)c(O)c12` (centres undefined), the LC retention time is 3.52 min. Next, `COc1cc(C=CC(=O)OC2C(OC3COC(c4c(O)cc5oc(-c6ccc(O)cc6)cc(=O)c5c4O)C(O)C3O)OC(CO)C(O)C2O)ccc1O` (centres undefined): 4.71 min; `C=CCc1ccc(O)c(-c2cc(CC=C)ccc2O)c1`: 9.21 min; `O=C(O)CC(=O)OCC1OC(Oc2ccc3c(=O)c(-c4ccc(O)cc4)coc3c2)C(O)C(O)C1O` (centres undefined): 4.1 min. Next, `OCC1OC(OCC2OC(OCC3OC(OC4(CO)OC(CO)C(O)C4O)C(O)C(O)C3O)C(O)C(O)C2O)C(O)C(O)C1O` (centres undefined): 1.69 min; `O=S(=O)(O)ON=C(CC(O)c1ccccc1)SC1OC(CO)C(O)C(O)C1O` (centres undefined): 2.71 min; `CCC(C)C(N)C(=O)NC(CO)C(=O)O` (centres undefined): 1.8 min.
